Test results reported in patent publication US8574831B2, “Mutational profiles in HIV-1 reverse transcriptase correlated with phenotypic drug resistance” (Virco N.V., priority 2000, dated 2013).

Tested on: HIV with mutations in the HIV protease sequence
Assay: Phenotypic fold resistance to protease inhibitors, protease mutations 84A/84L/84C/54M/54L/54V in a background (Examples 8-13)
Assay type: cell-based, HIV-1
Experimental: As is the case with the genotyping assays, the recombinant virus assay starts with the amplification of viral target sequences by means of PCR. The amplicons are incorporated into a proviral laboratory clone with sequences homologous to those present in the amplicon deleted. This generates a stock of chimeric viruses. The viruses are tested for their ability to grow in the presence of different concentrations of drugs. Results are obtained by calculating IC50 values for each inhibitor and by reporting the results as IC50 values, expressed in μM concentrations, or by computing the ratio of the IC50 values found for the chimeric virus to the IC50 values found for a wild type susceptible laboratory virus tested in parallel. In the latter case, resistance is expressed as “fold-resistance” compared to a wild-type susceptible HIV-1 strain. In order to meet the need for high-volume testing and a short turn-around time for an individual test, the latest generation of phenotyping assays has undergone further modifications. The use of reporter gene systems for susceptibility testing allows the implementation of laboratory automation and standardization. See Pauwels, et al., J. Virol. Methods 20, 309-321 (1998); Paulous, S., et al., International Workshop on HIV Drug Resistance, Treatment Strategies and Eradication, St. Petersburg, Fla., USA. Abstr. 46 (1997); and Deeks, S. G., et al., 2nd International Workshop on HIV Drug Resistance and Treatment Strategies, Lake Maggiore, Italy. Abstr. 53 (1998).
The ANTIVIROGRAM® assay (Virco) (WO 97/27480) is based on homologous recombination of patient derived HIV-1 gag/PR/RT sequences into a proviral HIV-1 clone correspondingly deleted for the gag/PR/RT sequences. See Pauwels, et al., J. Virol. Methods 20, 309-321 (1998). A similar assay (Phenosense ViroLogic) is based on enzymatic ligation of patient-derived PR/RT sequences into a correspondingly deleted proviral vector carrying an indicator gene, luciferase, inserted in the deleted HIV-1 envelope gene. See Deeks, S. G., et al., 2nd International Workshop on HIV Drug Resistance and Treatment Strategies, Lake Maggiore, Italy. Abstr. 53 (1998). Hertogs et al. Antimicrob. Agents Chemother. 44(3) 568-573 (2000) the disclosures of which are herein incorporated by reference.
The methods of monitoring HIV-1 drug resistance, may also be used in combination with phenotypic drug resistance testing of viral isolates. For example, in one embodiment, a phenotypic test is utilized that is based upon the construction of chimeric HIV-1 strains composed of the protease (PR) and reverse transcriptase (RT) gene sequences which are isolated and amplified from the patient viral RNA. These strains may subsequently be recombined inside CD4+ T cells with a standard laboratory isogenic (HXB2) HIV-1 DNA construct from which the PR/RT gene sequences were deleted. The recombinant strains may then be grown in the presence of the above-mentioned antiviral drugs and the susceptibility of the viral isolates may be expressed as fold-change value of the IC50 of the drug on the patient isolates over the IC50 of the drug on a wild-type laboratory reference strain.

Cc1c(O)cccc1C(=O)N[C@@H](CSc1ccccc1)[C@H](O)CN1C[C@H]2CCCC[C@H]2C[C@H]1C(=O)NC(C)(C)C [Nelfinavir, nelfinavir]
mean fold increase in resistance (Table 9 #1, protease genotype WT): 0.7 fold
mean fold increase in resistance (Table 9 #2, protease genotype 10I): 1 fold
mean fold increase in resistance (Table 9 #3, protease genotype 46I): 1.5 fold
mean fold increase in resistance (Table 9 #4, protease genotype 46I + 84V): 5.6 fold
mean fold increase in resistance (Table 9 #5, protease genotype 46I + 84A): 61.9 fold
mean fold increase in resistance (Table 9 #6, protease genotype 10I + 46I): 0.8 fold
mean fold increase in resistance (Table 9 #7, protease genotype 10I + 46I + 84V): 3.1 fold
mean fold increase in resistance (Table 9 #8, protease genotype 10I + 46I + 84A): 43.9 fold
mean fold increase in resistance (Table 9 #9, protease genotype 10L/I + 46I + 84A): 56.2 fold
mean fold increase in resistance (Table 9 #10, protease genotype 10I + 46I + 84A): 36.9 fold
mean fold increase in resistance (Table 9 #11, protease genotype 46I + 71V): 1 fold
mean fold increase in resistance (Table 9 #12, protease genotype 46I + 71V + 84V/I): 0.7 fold
mean fold increase in resistance (Table 9 #13, protease genotype 46I + 71V + 84A): 59.9 fold
mean fold increase in resistance (Table 9 #14, protease genotype 10F + 46I + 71V): 45.2 fold
mean fold increase in resistance (Table 9 #15, protease genotype 10I + 46I + 71V + 84V): 57.1 fold
mean fold increase in resistance (Table 9 #16, protease genotype 10I + 46I + 71V + 84A): 54.9 fold
mean fold increase in resistance (Table 9 #17, protease genotype 10V + 46I + 71T + 84A): 51.2 fold
mean fold increase in resistance (Table 9 #18, protease genotype 10I + 46I + 71V + 77I): 6.1 fold
mean fold increase in resistance (Table 9 #19, protease genotype 10I + 46I + 71V + 77I + 84V): 2.8 fold
mean fold increase in resistance (Table 9 #20, protease genotype 10I + 46I + 71V + 77I + 84A): 68.6 fold
mean fold increase in resistance (Table 9 #21, protease genotype 10I + 33L/I + 46I + 71V + 77V/I + 84A): 63.1 fold
mean fold increase in resistance (Table 10 #1, protease genotype 10I + 36I + 71V): 1.5 fold
mean fold increase in resistance (Table 10 #2, protease genotype 10I + 36I + 71I + 84V): 0.8 fold
mean fold increase in resistance (Table 10 #3, protease genotype 10I + 36I + 71I + 84L): 39.4 fold
mean fold increase in resistance (Table 11 #1, protease genotype WT): 0.7 fold
mean fold increase in resistance (Table 11 #2, protease genotype 84V): 0.9 fold
mean fold increase in resistance (Table 11 #3, protease genotype 84C): 51.2 fold
mean fold increase in resistance (Table 11 #4, protease genotype 10I): 1.0 fold
mean fold increase in resistance (Table 11 #5, protease genotype 10I + 84V): 2.0 fold
mean fold increase in resistance (Table 11 #6, protease genotype 10I + 84C): 61.9 fold
mean fold increase in resistance (Table 11 #7, protease genotype 77I): 0.9 fold
mean fold increase in resistance (Table 11 #8, protease genotype 77I + 84V): 2.8 fold
mean fold increase in resistance (Table 11 #9, protease genotype 77I + 84C): 61.9 fold
mean fold increase in resistance (Table 11 #10, protease genotype 77I + 84C): 38.2 fold
mean fold increase in resistance (Table 11 #11, protease genotype 10I + 24I + 36I + 46I + 71V + 84C): 51.7 fold
Fold change in IC50 (Table 12, V19263, genotype 77I): 0.9 fold
Fold change in IC50 (Table 12, V20160, genotype WT): 0.7 fold
Fold change in IC50 (Table 12, V021667, genotype 10I): 1.0 fold
Fold change in IC50 (Table 12, V030496, genotype 10I + 77I): 0.7 fold
Fold change in IC50 (Table 12, V048869, genotype 10I + 54M + 77I + 90M): 28.5 fold
Fold change in IC50 (Table 12, V048872, genotype 33F + 54M + 77I + 90M): 7.4 fold
Fold change in IC50 (Table 12, V048873, genotype 33F + 54M + 77I + 90M): 7.7 fold
Fold change in IC50 (Table 12, V048877, genotype 10I + 33F + 77I + 90M): 9.4 fold
Fold change in IC50 (Table 12, V048878, genotype 10I + 33F + 54M + 71V + 77I + 90M): 7.3 fold
Fold change in IC50 (Table 12, V048879, genotype 10I + 33F + 54M + 71V + 77I + 90M): 45.7 fold
Fold change in IC50 (Table 12, V048880, genotype 10I + 33F + 77I + 90M): 4.9 fold
Fold change in IC50 (Table 12, V052940, genotype 71V): 0.6 fold
Fold change in IC50 (Table 12, V052942, genotype 10I + 71V): 0.9 fold
Fold change in IC50 (Table 12, V052943, genotype 10I + 90M): 2.2 fold
Fold change in IC50 (Table 12, V052944, genotype 10I + 90M): 1.4 fold
Fold change in IC50 (Table 12, V052945, genotype 77I + 90M): 3.0 fold
Fold change in IC50 (Table 12, V052946, genotype 71V + 90M): 3.0 fold
Fold change in IC50 (Table 12, V052947, genotype 10I + 77I + 90M): 8.2 fold
Fold change in IC50 (Table 12, V052948, genotype 10I + 71V + 90M): 9.0 fold
Fold change in IC50 (Table 12, V052949, genotype 10I + 71V + 77I + 90M): 8.6 fold
Fold change in IC50 (Table 12, V052950, genotype 33F): 1.0 fold
Fold change in IC50 (Table 12, V052951, genotype 33F + 77I): 5.2 fold
Fold change in IC50 (Table 12, V052953, genotype 10I + 33F + 77I): 0.9 fold
Fold change in IC50 (Table 12, V052954, genotype 33F + 77I + 90M): 5.9 fold
Fold change in IC50 (Table 12, V052955, genotype 33F + 71V + 90M): 36.6 fold
Fold change in IC50 (Table 12, V052977, genotype 10I + 33F + 54M): 3.8 fold
Fold change in IC50 (Table 12, V052978, genotype 10I + 33F + 54M + 71V + 90M): 29.1 fold
Fold change in IC50 (Table 12, V052979, genotype 10I + 54M): 3.8 fold
Fold change in IC50 (Table 12, V052980, genotype 10I + 54M + 90M): 7.0 fold
Fold change in IC50 (Table 12, V052981, genotype 10I + 54M + 71V + 90M): 8.7 fold
Fold change in IC50 (Table 12, V052982, genotype 10I + 54M + 71V + 77I + 90M): 10.1 fold
Fold change in IC50 (Table 12, V053832, genotype 10I + 33F): 1.6 fold
